For this assay, the target named is recombinant human CCR5 receptor (Homo sapiens, UniProt P51681). The assay is described as follows: in vitro radioligand binding assay: inhibition of binding of iodinated MIP-1α (scintillation proximity). The note with it: displacement of iodinated MIP-1α from membranes of Chinese hamster ovary cells expressing recombinant human CCR5; negative log10 of IC50; average if tested more than once. Here is the method:
The ability of compounds to inhibit the binding of MIP-1α was assessed by an in vitro radioligand binding assay. Membranes were prepared from Chinese hamster ovary cells which expressed the recombinant human CCR5 receptor. These membranes were incubated with […] iodinated MIP-1α, scintillation proximity beads and various concentrations of the compounds of the invention in 96-well plates. The amount of iodinated MIP-1α bound to the receptor was determined by scintillation counting. Competition curves were obtained for compounds and the concentration of compound which displaced 50% of bound iodinated MIP-1α was calculated (IC50).
Results from this test for certain compounds of the invention are presented in Table V. In Table V the results are presented as Pic50 values. A Pic50 value is the negative log (to base 10) of the IC50 result, so an IC50 of 1 μM (that is 1×10^−6M) gives a Pic50 of 6. If a compound was tested more than once then the data below is an average of the probative tests results.

Experimental findings from patent US20080200460A1, “Chemical Compounds” (priority 2004, published 2008) are described below.

By IC50 is commonly meant the midpoint of a concentration-inhibition curve.

SMILES strings stand for the structures.

Sequence of recombinant human CCR5 receptor (P51681 whole entry): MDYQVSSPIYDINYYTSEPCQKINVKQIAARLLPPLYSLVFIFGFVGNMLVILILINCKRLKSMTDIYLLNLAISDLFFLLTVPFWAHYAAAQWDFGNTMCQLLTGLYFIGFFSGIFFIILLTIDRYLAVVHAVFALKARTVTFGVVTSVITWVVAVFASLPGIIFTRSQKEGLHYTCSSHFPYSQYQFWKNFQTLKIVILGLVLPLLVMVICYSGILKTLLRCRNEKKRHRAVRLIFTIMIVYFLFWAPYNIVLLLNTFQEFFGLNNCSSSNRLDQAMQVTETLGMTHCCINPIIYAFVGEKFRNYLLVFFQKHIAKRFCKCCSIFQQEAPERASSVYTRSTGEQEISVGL

Turning to `C=CCN(C(=O)CC1CCN(S(C)(=O)=O)CC1)C1CCN(CC[C@@H](c2cc(F)cc(F)c2)C2CCN(S(C)(=O)=O)CC2)CC1` [Compound 7 Table I, N-allyl-N-(1-{(3R)-3-(3,5-difluorophenyl)-3-[1-(methylsulfonyl)piperidin-4-yl]propyl}piperidin-4-yl)-2-[1-(methylsulfonyl)piperidin-4-yl]acetamide], the IC50 was 0.316 nM.

`CCN(C(=O)CC1CCOCC1)C1CCN(CC[C@H](c2ccc(S(C)(=O)=O)cc2)c2cc(F)cc(F)c2)CC1` [Compound 2 Table III, N-(1-{(3R)-3-(3,5-difluorophenyl)-3-[4-(methylsulphonyl)phenyl]propyl}piperidin-4-yl)-N-ethyl-2-(tetrahydro-2H-pyran-4-yl)acetamide]: the 50% inhibitory concentration (IC50) was 15.8 nM.

On to `CCN(C(=O)CN1CCN(S(C)(=O)=O)CC1)C1CCN(CC[C@@H](c2cc(F)cc(F)c2)C2CCN(S(C)(=O)=O)CC2)CC1` [Compound 5 Table I, N-(1-{(3R)-3-(3,5-difluorophenyl)-3-[1-(methylsulfonyl)piperidin-4-yl]propyl}piperidin-4-yl)-N-ethyl-2-[4-(methylsulfonyl)piperazin-1-yl]acetamide], for which the IC50 was 3.16 nM.

Consider `CCN(C(=O)CC1CCN(S(C)(=O)=O)CC1)C1CCN(CC[C@H](c2ccc(S(C)(=O)=O)cc2)c2cc(F)cc(F)c2)CC1` [Compound 1 Table III, N-(1-{(3R)-3-(3,5-difluorophenyl)-3-[4-(methylsulphonyl)phenyl]propyl}piperidin-4-yl)-N-ethyl-2-[1-(methylsulphonyl)piperidin-4-yl]acetamide], for which the IC50 is 0.794 nM.

For the compound `CCN(C(=O)NCC1CCN(S(C)(=O)=O)CC1)C1CCN(CC[C@H](c2ccc(S(C)(=O)=O)cc2)c2cc(F)cc(F)c2)CC1` [Compound 1 Table IV], the half-inhibitory concentration (IC50) was 0.316 nM.
